Consider 24 compounds from ChEMBL document CHEMBL1146787, “Novel nonpeptidic inhibitors of HIV-1 protease obtained via a new multicomponent chemistry strategy” (Bioorg Med Chem Lett, 2004).

pIC50: −log10 of the molar value. Where only a bound is given, the exact number is not on record here.

Test [1] deals with T1, Human immunodeficiency virus type 1 protease (Human immunodeficiency virus 1, UniProt Q72874). Put plainly: Inhibitory concentration against Protease.
For test [2], the target named is T1, Human immunodeficiency virus type 1 protease. Put plainly: Evaluated for inhibition of Protease after CLND/MS correction from the crude mixture.
Test [3] shares this target. Put plainly: Evaluated for inhibition of Protease from the crude plate mixture.
The target is the same in test [4]. Put plainly: Evaluated for inhibition of Protease after resynthesis and purification.

The pIC50 is the IC50 on a negative log10 scale, so that one unit is a factor of ten. `CC(C)(C)NC(=O)C1(CCc2ccccc2)OC(O)=C(CCc2ccccc2)C1=O` (configuration not stated): the negative-log IC50 (pIC50) in test [1] was 5.52. Same read-out and setting: in the case of `CC(C)(C)NC(=O)C1(C)OC(O)=C(CCc2ccccc2)C1=O` (configuration not stated) it was 4.15. As for `CC(C)(C)NC(=O)C1(CCc2ccccc2)OC(O)=C(Cc2ccccc2)C1=O` (configuration not stated), the negative-log IC50 (pIC50) in test [1] was 4.96. As to `CC(C)=CCCC(C)C1=C(O)C(CCc2ccccc2)(C(=O)NC(C)(C)C)OC1=O` (configuration not stated), the negative-log IC50 (pIC50) is 5.89 in test [2], 6.00 in test [1], 4.82 in test [3] and 5.89 in test [4]. For the compound `CC(C)(C)NC(=O)C1(CCc2ccccc2)OC(O)=C(c2ccc(-c3ccccc3)cc2)C1=O` (configuration not stated), the negative-log IC50 (pIC50) in test [1] is 4.57. Consider `CNC(=O)C1(C)OC(O)=C(C(C)c2ccccc2)C1=O` (configuration not stated), for which the negative-log IC50 (pIC50) in test [1] is 3.61.

Consider `CCCCNC(=O)C1(C)OC(O)=C(CCc2ccccc2)C1=O` (configuration not stated), for which the pIC50 in test [1] is under 4.00. Same read-out and setting: next, `CC(C1=C(O)C(C)(C(=O)NC(C)(C)C)OC1=O)c1ccccc1` (configuration not stated): 3.98; `CC(C1=C(O)OC(C(=O)NCCc2ccc(Cl)cc2)(C(C)C)C1=O)c1ccccc1` (configuration not stated): 4.51; `COc1cc(CC2=C(O)C(C)(C(=O)NC(C)(C)C)OC2=O)cc(OC)c1OC` (configuration not stated): under 3.00. Regarding `CN(C(=O)OC(C)(C)C)C1=C(O)C(CCc2ccccc2)(C(=O)NC(C)(C)C)OC1=O` (configuration not stated), the pIC50 in test [1] is 4.33.

In test [1], `CC(C)(C)NC(=O)C1(CCc2ccccc2)OC(O)=C(c2c[nH]c3ccccc23)C1=O` (configuration not stated) had a pIC50 of 3.97. Take `C[C@H](C1=C(O)[C@@](CCc2ccccc2)(C(=O)NCc2ccc(C(C)(C)C)cc2)OC1=O)c1ccccc1`: in test [4], the pIC50 is 5.27.

The compound `CC(C1=C(O)[C@@](CCc2ccccc2)(C(=O)NCc2ccc(C(C)(C)C)cc2)OC1=O)c1ccccc1` (some centres not stated) showed a negative-log IC50 (pIC50) in test [1] of 5.30.

`COCCNC(=O)C1(C)OC(O)=C(C(C)c2ccccc2)C1=O` (configuration not stated) gave a negative-log IC50 (pIC50) in test [1] of 3.65. `CN(C(=O)OC(C)(C)C)C1=C(O)C(CCc2ccccc2)(C(=O)NCC2CCCO2)OC1=O` (configuration not stated) gave a negative logarithm of the IC50 (pIC50) in test [1] of 3.71. `CNC1=C(O)C(CCc2ccccc2)(C(=O)NCC2CCCO2)OC1=O` (configuration not stated): in test [1], the negative-log IC50 (pIC50) was under 3.00.

With `CC(C)(C)NC(=O)C1(CCc2ccccc2)OC(O)=C(c2ccc(C(C)(C)C)cc2)C1=O` (configuration not stated), the negative logarithm of the IC50 (pIC50) in test [1] was 4.77. For the compound `COc1cc(CC2=C(O)C(C)(C(=O)NC3CC3)OC2=O)cc(OC)c1OC` (configuration not stated), in test [1], the pIC50 was under 3.00. For the compound `CC(C1=C(O)C(CCc2ccccc2)(C(=O)NC(C)(C)C)OC1=O)c1ccccc1` (configuration not stated), the pIC50 in test [2] was 5.39; in test [1], 5.40; in test [3], 5.22; in test [4], 5.70. For the compound `CC1(C(=O)NC2CC2)OC(O)=C(CCc2ccccc2)C1=O` (configuration not stated), in test [1], the negative logarithm of the IC50 (pIC50) is 3.53. The same measure, in the same setting: in the case of `CC(C)=CCCC(C)C1=C(O)C(C)(C(=O)NC(C)(C)C)OC1=O` (configuration not stated) it was 3.82.

For the compound `COc1cc(CC2=C(O)C(CCc3ccccc3)(C(=O)NCC(C)(C)C)OC2=O)cc(OC)c1OC` (configuration not stated), the pIC50 in test [1] was under 3.00. As for `C[C@H](C1=C(O)C(CCc2ccccc2)(C(=O)NCc2ccc(C(C)(C)C)cc2)OC1=O)c1ccccc1` (single isomer, unassigned), the negative-log IC50 (pIC50) in test [2] was 5.92; in test [1], 4.08; in test [4], 5.34.
